Results on 12 compounds are retold here after PubChem BioAssay (NCI).

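Protocol summary: plate cells (96-well), add compound at 5 concentrations, incubate 48 h, interpolate endpoints linearly. GI50 marks 50% less growth. TGI: total growth inhibition.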

Test systems include SK-MEL-5 melanoma; SF-268 CNS; SK-OV-3 ovarian; SNB-75 CNS; SF-295 CNS; UACC-62 melanoma; TK-10 renal; A549 NSCLC; OVCAR-3 ovarian; MOLT-4 leukemia.
Test in all cases: DTP human tumour cell line panel, 48 h

Consider `Cc1ccc(C(O)c2cnc(C)n2Cc2ccccc2)cc1` (stereo unspecified), for which the total growth inhibition concentration (TGI) in the assay on SK-MEL-5 melanoma, in the assay with SF-268 CNS, in the assay on SK-OV-3 ovarian, with SNB-75 CNS, in the assay with SF-295 CNS and with UACC-62 melanoma was more than 100 µM in each case. Further, the concentration for total growth inhibition (TGI) in the assay on TK-10 renal, in the assay with A549 NSCLC and in the assay on OVCAR-3 ovarian was more than 100 µM in each case.

As to `C=C(C)C(=O)O[C@H]1[C@H]2[C@H](OC(=O)[C@H]2C)[C@H](O)[C@@H](C)[C@@H]2C=CC(=O)[C@]21C`, the TGI with SK-MEL-5 melanoma was found to be 20.2 µM; in the assay on SF-268 CNS it was 12.6 µM; in the assay with SK-OV-3 ovarian, 18.3 µM; with SF-295 CNS, 18.7 µM; in the assay on UACC-62 melanoma, 3.84 µM; in the assay on TK-10 renal it was 8.09 µM. Moreover, the results for the TGI in the assay with A549 NSCLC, in the assay with MOLT-4 leukemia and in the assay with OVCAR-3 ovarian were 12.5 µM, 7.52 µM and 18.4 µM, respectively.

`CCC12CCCC(=O)N1C(CO)C(c1ccccc1)O2` (stereo unspecified): the concentration for total growth inhibition (TGI) in the assay with SK-MEL-5 melanoma, in the assay on SF-268 CNS, in the assay with SNB-75 CNS, with SF-295 CNS, in the assay with UACC-62 melanoma and in the assay on TK-10 renal was more than 100 µM each time. The TGI with A549 NSCLC and with OVCAR-3 ovarian was more than 100 µM in each case.

With `CC(=O)n1c2ccccc2c2nc3nc(Oc4ccc(C)cc4)c4ccccc4c3cc21`, the total growth inhibition concentration (TGI) with SK-MEL-5 melanoma, in the assay on SF-268 CNS, in the assay on SK-OV-3 ovarian, with SNB-75 CNS, in the assay with SF-295 CNS and in the assay on UACC-62 melanoma was more than 100 µM in each case. Further, the TGI with A549 NSCLC, with MOLT-4 leukemia and in the assay on OVCAR-3 ovarian was more than 100 µM each time.

As to `CC(=O)O[C@@H]1CC2C(C)(C)CCCC2(C)C2=C1C(=O)C(C(C)C)=CC2=O` (stereo partly specified), the GI50 with SK-MEL-5 melanoma is 0.581 µM; with SF-268 CNS it was 1.39 µM; with SK-OV-3 ovarian, 3.26 µM; in the assay on SF-295 CNS, 1.77 µM; in the assay with UACC-62 melanoma, 0.458 µM; with TK-10 renal, 2.51 µM. The GI50 was 1.43 µM in the assay on A549 NSCLC, 1.13 µM in the assay with MOLT-4 leukemia and 1.51 µM in the assay on OVCAR-3 ovarian. The TGI in the assay on SK-MEL-5 melanoma is 1.84 µM; in the assay with SF-268 CNS, 38.1 µM; in the assay with SK-OV-3 ovarian, 8.5 µM; in the assay with SF-295 CNS, 3.61 µM; in the assay on UACC-62 melanoma it was 2.07 µM; with TK-10 renal, more than 100 µM. The TGI in the assay with A549 NSCLC is 5.83 µM; in the assay with MOLT-4 leukemia, more than 100 µM; with OVCAR-3 ovarian, 3.36 µM.

On to `Fc1ccc2[nH]c3c(NCCCN4CCOCC4)ncnc3c2c1`, for which the GI50 in the assay with SK-MEL-5 melanoma was 21.3 µM; with SF-268 CNS it was 88.2 µM; in the assay on SK-OV-3 ovarian it was more than 100 µM; with SNB-75 CNS, 37.5 µM; in the assay with SF-295 CNS, 61.2 µM; with UACC-62 melanoma it was 17.5 µM. Besides, the GI50 is 66.4 µM with TK-10 renal, 50.7 µM with MOLT-4 leukemia and more than 100 µM with OVCAR-3 ovarian. The TGI with SK-MEL-5 melanoma is 73.1 µM; with SF-268 CNS, more than 100 µM; in the assay with SK-OV-3 ovarian it was more than 100 µM; in the assay on SNB-75 CNS it was more than 100 µM; in the assay on SF-295 CNS, more than 100 µM; with UACC-62 melanoma, 40.4 µM. Also, the TGI in the assay on TK-10 renal, in the assay on MOLT-4 leukemia and in the assay with OVCAR-3 ovarian was more than 100 µM throughout.

With `CCOC(=O)C(=O)Nc1c(C)cccc1C`, the concentration for total growth inhibition (TGI) in the assay with SF-268 CNS, with SK-OV-3 ovarian, with SNB-75 CNS, in the assay with SF-295 CNS, with UACC-62 melanoma and in the assay with TK-10 renal was more than 100 µM each time. The TGI in the assay with A549 NSCLC and in the assay on OVCAR-3 ovarian was more than 100 µM in each case.

Regarding `S=c1[nH]c2ccc(Br)cc2c(=S)n1-c1ccccc1`, the TGI in the assay with SK-MEL-5 melanoma was 35.5 µM; in the assay on SF-268 CNS, more than 100 µM; in the assay with SK-OV-3 ovarian, 85.6 µM; in the assay on SNB-75 CNS, 79.1 µM; with SF-295 CNS, 55.7 µM; in the assay with UACC-62 melanoma it was 32.3 µM. Moreover, the total growth inhibition concentration (TGI) in the assay on TK-10 renal is more than 100 µM; in the assay on A549 NSCLC, more than 100 µM; with OVCAR-3 ovarian it was 78.3 µM.

As to `CC(C)(C)c1ccc(S(=O)(=O)N[C@H]2CC[C@H]3[C@@H]4CCc5cc(OS(=O)(=O)O)ccc5[C@H]4CC[C@]23C)cc1`, the GI50 is 1.64 µM in the assay with SK-MEL-5 melanoma; 3.14 µM with SF-268 CNS; 2.92 µM in the assay with SK-OV-3 ovarian; 2.03 µM in the assay on SNB-75 CNS; 2.51 µM in the assay on SF-295 CNS; 1.81 µM in the assay with UACC-62 melanoma. Further, the figures for the GI50 with TK-10 renal, in the assay on A549 NSCLC and in the assay on MOLT-4 leukemia were 3.69 µM, 2.83 µM and 2.65 µM, respectively. Further, the TGI turned out to be 2.99 µM in the assay on SK-MEL-5 melanoma; 11.5 µM in the assay with SF-268 CNS; 8.54 µM in the assay with SK-OV-3 ovarian; 6.11 µM in the assay with SNB-75 CNS; 6.76 µM in the assay with SF-295 CNS; 3.72 µM in the assay on UACC-62 melanoma. For the same compound, the figures for the total growth inhibition concentration (TGI) in the assay on TK-10 renal, in the assay with A549 NSCLC and in the assay with MOLT-4 leukemia were 12.4 µM, 10.2 µM and 9.55 µM, respectively.

Consider `CC(=O)Oc1ccc(O)c(O)c1C/C=C(\C)CC/C=C(\C)CC/C=C(\C)CCC=C(C)C`, for which the total growth inhibition concentration (TGI) turned out to be 2.18 µM in the assay on SF-268 CNS; 1.92 µM with SNB-75 CNS; 4.27 µM in the assay with SF-295 CNS; 2.6 µM in the assay on TK-10 renal; 1.55 µM in the assay on A549 NSCLC.

As for `CN(C)c1ccc2cc(-c3ccccc3F)c(N)nc2c1`, the GI50 in the assay on SK-MEL-5 melanoma was 1.54 µM; in the assay with SF-268 CNS, 3.89 µM; in the assay with SK-OV-3 ovarian it was 2.52 µM; with SNB-75 CNS it was 1.86 µM; in the assay on SF-295 CNS it was 1.04 µM; with UACC-62 melanoma, 0.89 µM. Also, the figures for the GI50 in the assay on TK-10 renal, with A549 NSCLC and in the assay with OVCAR-3 ovarian were 3.83 µM, 2.46 µM and 0.922 µM, respectively. For the same compound, the TGI amounted to 6.31 µM in the assay with SK-MEL-5 melanoma; 19.8 µM in the assay with SF-268 CNS; 12.2 µM with SK-OV-3 ovarian; 9.69 µM in the assay with SNB-75 CNS; 12.4 µM with SF-295 CNS; 12 µM in the assay with UACC-62 melanoma. Also, the TGI with TK-10 renal came out at 16.2 µM; in the assay on A549 NSCLC, 16.4 µM; in the assay on OVCAR-3 ovarian, 7.62 µM.

Regarding `Cn1nc(-c2ccccc2)c(C(=O)/C=C/c2ccccc2)c(N2CCOCC2)c1=O`, the TGI with SK-MEL-5 melanoma is 37.6 µM; with SF-268 CNS, 32.6 µM; in the assay on SK-OV-3 ovarian it was 81 µM; in the assay on UACC-62 melanoma it was 52.9 µM; with TK-10 renal, 89.4 µM; with A549 NSCLC, more than 100 µM. Besides, in the assay with MOLT-4 leukemia, the concentration for total growth inhibition (TGI) was found to be 49.4 µM.

Broadly, the TGI is the concentration giving total growth inhibition. A high value points to lower sensitivity of the cells. One may read the GI50 as the concentration at which growth is held to half of that of the control.
